In patent publication US8486996B2, “Aroylfuranes and aroylthiophenes” (Basilea Pharmaceutica AG, priority 2006, dated 2013):
Like-named read-outs stand apart in the source and are kept apart here.

Assays:
Type in all cases: cell-based
[1] = Hoechst 33342 nuclear staining (48 h read-out)
Description: (§1) A) Hoechst 33342 Nuclear Staining
(§2) This assay is performed in 96 well tissue culture plates. Appropriate number of cells (adherent cells: 3-5*10^3, suspension cells: 8-10*10^3) are being seeded out in 80 μl complete medium. Adherent cells are incubated for 24 h for proper spreading out before addition of test compounds while suspension cells are immediately treated with test compounds after seeding out. The test compounds are added in 20 μl complete medium containing max 5% DMSO. The final compound concentrations in the assays are in the range of 0.001 μM-10 μM. After 24 h or 48 h incubation at culture conditions, 10 μl medium containing Hoechst 33342 dye (Sigma B-2261) at 2-5 μg/ml are added to each well. The assay plates are then further incubated for 30 minutes and subsequently analyzed with a standard inverted fluorescence microscope.
(§3) The readout allows the determination of the fraction of apoptotic nuclei as well as other morphological criteria specific for apoptosis as a function of the treatment. The scores A, B, C and D are explained at the end of the Table.

tumor cells [2] = test: Hoechst 33342 nuclear staining (48 h read-out)
Description: as §1, §2, §3

[3] = MTS proliferation assay (72 h read-out); conditions: MRC5 cells
Description: (§4) B) MTS Proliferation Assay
(§5) The assay is performed in 96 well tissue culture plates. The cells (range: 1.5*10^3-10^4) are seeded out in 80 μl complete medium 24 h prior to compound treatment. The test compounds are added in 20 μl complete medium containing max 5% DMSO. The final compound concentrations in the assays are in the range of 0.001 μM-10 μM. The assay plates are incubated for 72 h at culture conditions. The MTS reagent is prepared according to the manufacturer's protocol (Promega G1111). 20 μl MTS reagent are added to each well; the assay plates are quickly spun and incubated for another 3 h at culture conditions. Subsequently, the plates are shortly shaked and absorption measured with a microplate-reader at 492 nm. The scores A, B, C and D are explained at the end of the Table.

tumor cells [4] = test: MTS proliferation assay (72 h read-out)
Description: as §4, §5

[5] = Mitochondrial membrane potential, JC-1 (read-out 48 h); conditions: PBL, JC-1, 48 h
Description: (§6) D) Mitochondrial Membrane Potential
as §2, with “The final compound concentrations in the assays are in the range of 0.001 μM-10 μM.” left out, “JC-1 (Molecular Probes, T-3168)” for “Hoechst 33342 dye (Sigma B-2261)”, “microscope by using the FITC and TRITC filters.” for “microscope.”
(§7) The readout allows the determination of the fraction of cells which show a dissipation of the mitochondrial membrane potential strongly indicating an apoptotic cell death as a function of the treatment. The scores A, B, C and D are explained at the end of the Table.

tumor cells [6] = test: as above; conditions: JC-1, 48 h
Description: as §6
as §2, with “The final compound concentrations in the assays are in the range of 0.001 μM-10 μM.” left out, “JC-1 (Molecular Probes, T-3168)” for “Hoechst 33342 dye (Sigma B-2261)”, “microscope by using the FITC and TRITC filters.” for “microscope.”
as §7

[7] = Homo sapiens, MRC5 cells, read-out: Hoechst 33342 nuclear staining EC50, MRC5
[8] = PBL, read-out: Hoechst 33342 nuclear staining EC50, PBL
[9] = Homo sapiens, HeLa cells, read-out: Hoechst 33342 nuclear staining EC50, HeLa
[10] = Homo sapiens, Jurkat cells, read-out: Hoechst 33342 nuclear staining EC50, Jurkat
[11] = Jily cells, read-out: Hoechst 33342 nuclear staining EC50, Jily
[12] = Homo sapiens, HT-1080, HT1080 cells, read-out: MTS proliferation assay IC50, HT1080
[13] = Homo sapiens, HeLa cells, read-out: MTS proliferation assay IC50, HeLa
[14] = Jily cells, read-out: MTS proliferation assay IC50, Jily
[15] = Homo sapiens, HeLa cells, read-out: Mitochondrial membrane potential (read-out 48 h) HeLa
[16] = Homo sapiens, Jurkat cells, read-out: Mitochondrial membrane potential (read-out 48 h) Jurkat
[17] = Homo sapiens, MCF7 cells, read-out: Mitochondrial membrane potential (read-out 48 h) MCF7
[18] = Jily cells, read-out: Mitochondrial membrane potential (read-out 48 h) Jily
[19] = Homo sapiens, Jurkat cells, read-out: MTS proliferation assay IC50, Jurkat
[20] = MRC5 cells, read-out: Hoechst 33342 nuclear staining EC50, MRC5
[21] = HeLa cells, read-out: Hoechst 33342 nuclear staining EC50, HeLa
[22] = Jurkat cells, read-out: Hoechst 33342 nuclear staining EC50, Jurkat
[23] = HT1080 cells, read-out: MTS proliferation assay IC50, HT1080
[24] = HeLa cells, read-out: MTS proliferation assay IC50, HeLa
[25] = Jurkat cells, read-out: MTS proliferation assay IC50, Jurkat
[26] = HeLa cells, read-out: Mitochondrial membrane potential (read-out 48 h) HeLa
[27] = Jurkat cells, read-out: Mitochondrial membrane potential (read-out 48 h) Jurkat
[28] = MCF7 cells, read-out: Mitochondrial membrane potential (read-out 48 h) MCF7

| EC50 [1, 8] [nM] | EC50 (tumor cells [2]; [9]) [nM] | EC50 (tumor cells [2]; [10]) [nM] | EC50 (tumor cells [2]; [11]) [nM] | IC50 (tumor cells [4]; [12]) [nM] | IC50 (tumor cells [4]; [13]) [nM] | IC50 (tumor cells [4]; [14]) [nM] | EC50 [5] [nM] | EC50 (tumor cells [6]; [15]) [nM] | EC50 (tumor cells [6]; [16]) [nM] | EC50 (tumor cells [6]; [17]) [nM] | EC50 (tumor cells [6]; [18]) [nM] | EC50 (tumor cells [2]; [21]) [nM] | EC50 (tumor cells [2]; [22]) [nM] | IC50 (tumor cells [4]; [23]) [nM] | SMILES | EC50 [1, 7] [nM] | IC50 ([3]; Homo sapiens) [nM] | IC50 (tumor cells [4]; [19]) [nM] | EC50 [1, 20] [nM] | IC50 [3] [nM] | also measured |
| --- | --- | --- | --- | --- | --- | --- | --- | --- | --- | --- | --- | --- | --- | --- | --- | --- | --- | --- | --- | --- | --- |
| > 1000 | > 1000 | > 1000 | > 1000 | > 1000 | > 1000 | 100 to 1000 | > 1000 | > 1000 | 100 to 1000 | > 1000 | > 1000 |  |  |  | Nc1c(C(=O)c2ccccc2OCc2ccccc2)oc2ccc(Cl)cc12 [Example 1, 3-Amino-5-chloro-2-(2-benzyloxybenzoyl)-benzofuran] | > 1000 | > 1000 |  |  |  |  |
| > 1000 |  |  | > 1000 |  |  | > 1000 | > 1000 |  |  |  | > 1000 | > 1000 | > 1000 | > 1000 | Nc1c(C(=O)c2ccccc2OCCN2CCOCC2)oc2ccc(Cl)cc12 [Example 10] |  |  |  | > 1000 | > 1000 | IC50 (tumor cells [4]; [24]): > 1000 nM; IC50 (tumor cells [4]; [25]): > 1000 nM; EC50 (tumor cells [6]; [26]): > 1000 nM; EC50 (tumor cells [6]; [27]): > 1000 nM; EC50 (tumor cells [6]; [28]): > 1000 nM |
| > 1000 | 100 to 1000 | 100 to 1000 | 100 to 1000 | 100 to 1000 | 100 to 1000 | 100 to 1000 | > 1000 | 100 to 1000 | 100 to 1000 | 100 to 1000 | 100 to 1000 |  |  |  | CCOc1ccc(OCC)c(C(=O)c2oc3ccc(Cl)cc3c2N)c1 [Example 19] | 100 to 1000 | 100 to 1000 |  |  |  |  |
| > 1000 |  |  | 100 to 1000 |  |  | 100 to 1000 | > 1000 |  |  |  | 100 to 1000 | 100 to 1000 | 100 to 1000 | 100 to 1000 | CCOc1ccc(-n2cccc2)cc1C(=O)c1oc2ccc(Cl)cc2c1N [Example 22] |  |  |  | 100 to 1000 | 100 to 1000 | IC50 (tumor cells [4]; [24]): 100 to 1000 nM; IC50 (tumor cells [4]; [25]): 100 to 1000 nM; EC50 (tumor cells [6]; [26]): 100 to 1000 nM; EC50 (tumor cells [6]; [27]): 100 to 1000 nM; EC50 (tumor cells [6]; [28]): > 1000 nM |
| > 1000 | > 1000 | > 1000 | > 1000 | > 1000 | > 1000 | > 1000 | > 1000 | > 1000 | > 1000 | > 1000 | > 1000 |  |  |  | CCOc1ccccc1C(=O)c1oc2ccc(Cl)cc2c1O [Example 32, 5-Chloro-2-(2-ethoxybenzoyl)-3-hydroxybenzofuran] | > 1000 | > 1000 | > 1000 |  |  |  |

| SMILES | EC50 [1, 8] [nM] | EC50 (tumor cells [2]; [9]) [nM] | EC50 (tumor cells [2]; [10]) [nM] | EC50 (tumor cells [2]; [11]) [nM] | IC50 (tumor cells [4]; [12]) [nM] | IC50 (tumor cells [4]; [13]) [nM] | IC50 (tumor cells [4]; [14]) [nM] | EC50 [5] [nM] | EC50 (tumor cells [6]; [15]) [nM] | EC50 (tumor cells [6]; [16]) [nM] | EC50 (tumor cells [6]; [17]) [nM] | EC50 (tumor cells [6]; [18]) [nM] | EC50 (tumor cells [2]; [21]) [nM] | EC50 (tumor cells [2]; [22]) [nM] | IC50 (tumor cells [4]; [23]) [nM] | EC50 [1, 7] [nM] | IC50 ([3]; Homo sapiens) [nM] | IC50 (tumor cells [4]; [19]) [nM] | EC50 [1, 20] [nM] | IC50 [3] [nM] | also measured |
| --- | --- | --- | --- | --- | --- | --- | --- | --- | --- | --- | --- | --- | --- | --- | --- | --- | --- | --- | --- | --- | --- |
| CCOc1ccccc1C(=O)c1oc2c(C)cccc2c1N [Example 5, 3-Amino-7-methyl-2-(2-ethoxybenzoyl)-benzofuran] | > 1000 | > 1000 | 100 to 1000 | > 1000 | > 1000 | > 1000 | 100 to 1000 | > 1000 | > 1000 | 100 to 1000 | > 1000 | > 1000 |  |  |  | > 1000 | > 1000 | 100 to 1000 |  |  |  |
| CN(C)CCOc1ccccc1C(=O)c1oc2ccc(Cl)cc2c1N [Example 11] | > 1000 |  |  | > 1000 |  |  | > 1000 | > 1000 |  |  |  | > 1000 | > 1000 | > 1000 | > 1000 |  |  |  | > 1000 | > 1000 | IC50 (tumor cells [4]; [24]): > 1000 nM; IC50 (tumor cells [4]; [25]): > 1000 nM; EC50 (tumor cells [6]; [26]): > 1000 nM; EC50 (tumor cells [6]; [27]): > 1000 nM; EC50 (tumor cells [6]; [28]): > 1000 nM |
| COc1ccc2oc(C(=O)c3cccnc3N3CCOCC3)cc2c1 [Example 39, 5-Methoxy-2-(2-morpholino-3-pyridylcarbonyl)-benzofuran] | > 1000 | 10 to 100 | 10 to 100 | 10 to 100 | 10 to 100 | 10 to 100 | 10 to 100 | > 1000 | 10 to 100 | 10 to 100 | 100 to 1000 | 10 to 100 |  |  |  | 10 to 100 | 10 to 100 | 10 to 100 |  |  |  |
